Measurements from ChEMBL document CHEMBL1153387 (J Med Chem, 2009).
Calls of active or inactive are those of the source. No cut-off for these calls is given here. Non-standard residues stand in square brackets, D forms with d. Residues, ends and D or L forms follow the SMILES beside them. *: point of attachment. X2 = [N-]=[N+]=N[C@@H](CCCCN)CC(=O)*; Tle = CC(C)(C)[C@H](N)C(=O)O; X3 = C[C@](N)(CCCCN)CC(=O)*

Legend:
[1] = Metabolic stability in human serum assessed as half time of disappearance at 1 mM by MALDI-TOF mass spectrometry assay; type: ADME, cell-free; details: read-out: T50
[2] = Metabolic stability in rat serum assessed as half time of disappearance at 1 mM by MALDI-TOF mass spectrometry assay; type: ADME, cell-free; details: read-out: T50
[3] = molecular target: T1, Neurotensin receptor type 1 (Homo sapiens, UniProt P30989); assay: Displacement of [125I]I-Tyr(3)NT from human NTR1
[4] = molecular target: T1, Neurotensin receptor type 1; assay: Agonist activity at NTR1 in human HT-29 cells assessed as increase in intracellular calcium concentration by FLIPR assay; type: functional, cell-based
Rattus norvegicus [5] = assay: Hypothermic activity in Sprague-Dawley rat assessed as time duration of maximal body temperature decrease at 5 mg/kg, ip; type: functional; details: route intraperitoneal
Rattus norvegicus [6] = assay: Hypothermic activity in Sprague-Dawley rat assessed as decrease in core body temperature at 5 mg/kg, ip at time of maximal body temperature decrease; type: functional; details: route intraperitoneal
[7] = molecular target: T1, Neurotensin receptor type 1; assay: Binding affinity to human NTR1
Serum [8] = assay: Metabolic stability in human serum assessed as compound degradation rate at 1 mM by MALDI-TOF mass spectrometry assay; type: ADME, cell-free; details: 1000 µM
Serum [9] = assay: Metabolic stability in rat serum assessed as compound degradation rate at 1 mM by MALDI-TOF mass spectrometry assay; type: ADME, cell-free; details: 1000 µM
Rattus norvegicus [10] = assay: Hypothermic activity in Sprague-Dawley rat assessed as decrease in core body temperature at 5 mg/kg, ip measured up to 150 mins; type: functional, organism-based; design: dose 5 mg/kg

T1 sequence (P30989 whole entry): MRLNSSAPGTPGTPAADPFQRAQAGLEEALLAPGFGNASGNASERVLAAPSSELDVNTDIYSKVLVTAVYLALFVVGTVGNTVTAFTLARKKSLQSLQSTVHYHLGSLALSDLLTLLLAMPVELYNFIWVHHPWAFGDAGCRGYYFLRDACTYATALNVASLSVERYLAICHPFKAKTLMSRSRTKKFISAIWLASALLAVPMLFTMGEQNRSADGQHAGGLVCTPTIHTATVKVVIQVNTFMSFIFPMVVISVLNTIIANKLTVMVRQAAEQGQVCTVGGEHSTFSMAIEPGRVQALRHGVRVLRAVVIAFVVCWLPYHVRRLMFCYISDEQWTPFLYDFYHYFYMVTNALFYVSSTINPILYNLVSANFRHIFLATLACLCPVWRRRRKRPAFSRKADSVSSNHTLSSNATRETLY

| half-life at 1000 µM [1] | half-life at 1000 µM [2] | IC50 [3] | Ki [3] | EC50 [4] | Ki [7] | Activity (Serum [8]) | Activity (Serum [9]) | SMILES | Time (Rattus norvegicus [5]) | Activity (Rattus norvegicus [6]) | Activity (Rattus norvegicus [10]) |
| --- | --- | --- | --- | --- | --- | --- | --- | --- | --- | --- | --- |
| 62.7 h | 52 h | 7.32 nM | 5.49 nM | 7.28 nM | 4.5 nM | 0.133 µmol/min | 0.16 µmol/min | CC(C)C[C@H](NC(=O)[C@@H](NC(=O)[C@H](Cc1ccc(O)cc1)NC(=O)[C@@H]1CCCN1C(=O)[C@H](CCCNC(=N)N)NC(=O)C[C@H](CCCCN)N=[N+]=[N-])C(C)(C)C)C(=O)O (X2-RPY[Tle]L-OH) | 120 min | -2.57 °C |  |
| 42.8 h | 49.7 h | 13.9 nM | 10.4 nM | 6.44 nM | 9.9 nM | 0.194 µmol/min | 0.166 µmol/min | CC(C)C[C@H](NC(=O)[C@@H](NC(=O)[C@H](Cc1ccc(O)cc1)NC(=O)[C@@H]1CCCN1C(=O)[C@H](CCCNC(=N)N)NC(=O)C[C@@](C)(N)CCCCN)C(C)(C)C)C(=O)O (X3-RPY[Tle]L-OH) | 150 min | -2.13 °C |  |
|  |  |  |  |  |  |  |  | O=C(CCCN1CCC(O)(c2ccc(Cl)cc2)CC1)c1ccc(F)cc1 [HALOPERIDOL] | 90 min | -1.34 °C | Active |
